Read-outs that look alike come from different tables or passages of the source.
Assays:
Experiment in all cases: TGFα-shedding assay-based GPCR screening with chimeric Gα subunit proteins
Type in all cases: cell-based
348 GPCRs [1] = target: T1, 348 GPCRs (Homo sapiens, UniProt P47890); conditions: 10µM, Favipiravir 100μM
T1 construct: expressed in transfected cells; host or cells: HEK293A
T1 sequence (P47890 1-313): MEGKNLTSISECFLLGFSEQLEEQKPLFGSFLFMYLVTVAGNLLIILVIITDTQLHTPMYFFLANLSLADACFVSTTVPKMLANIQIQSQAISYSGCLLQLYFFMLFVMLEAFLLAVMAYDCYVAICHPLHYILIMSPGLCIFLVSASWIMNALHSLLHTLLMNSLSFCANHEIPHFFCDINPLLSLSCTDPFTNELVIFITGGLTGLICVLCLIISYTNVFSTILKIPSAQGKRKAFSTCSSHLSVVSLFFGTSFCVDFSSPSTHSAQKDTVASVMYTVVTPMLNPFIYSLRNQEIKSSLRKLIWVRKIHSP

348 GPCRs [2] = target: T2, 348 GPCRs (Homo sapiens, UniProt O43614); conditions: HCRTR2 (hypocretin (orexin) receptor 2); 10µM, Favipiravir 100μM
T2 construct: expressed in transfected cells; host or cells: HEK293A
T2 sequence (O43614 1-444): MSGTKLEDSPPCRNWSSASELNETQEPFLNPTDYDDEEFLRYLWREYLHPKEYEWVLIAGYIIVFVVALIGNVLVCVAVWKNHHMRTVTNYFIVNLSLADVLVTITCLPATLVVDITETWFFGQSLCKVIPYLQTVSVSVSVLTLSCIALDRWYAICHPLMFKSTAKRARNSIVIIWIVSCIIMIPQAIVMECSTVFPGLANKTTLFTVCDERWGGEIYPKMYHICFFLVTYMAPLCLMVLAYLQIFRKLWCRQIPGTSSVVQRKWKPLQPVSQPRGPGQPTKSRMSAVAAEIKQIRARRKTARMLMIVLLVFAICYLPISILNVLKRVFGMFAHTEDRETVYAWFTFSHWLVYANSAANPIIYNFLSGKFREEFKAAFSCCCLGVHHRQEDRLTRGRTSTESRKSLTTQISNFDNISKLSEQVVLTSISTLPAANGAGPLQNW

348 GPCRs [3] = target: T3, 348 GPCRs (Homo sapiens, UniProt P55085); conditions: 10µM, Favipiravir 100μM
T3 construct: expressed in transfected cells; host or cells: HEK293A
T3 sequence (P55085 26-397): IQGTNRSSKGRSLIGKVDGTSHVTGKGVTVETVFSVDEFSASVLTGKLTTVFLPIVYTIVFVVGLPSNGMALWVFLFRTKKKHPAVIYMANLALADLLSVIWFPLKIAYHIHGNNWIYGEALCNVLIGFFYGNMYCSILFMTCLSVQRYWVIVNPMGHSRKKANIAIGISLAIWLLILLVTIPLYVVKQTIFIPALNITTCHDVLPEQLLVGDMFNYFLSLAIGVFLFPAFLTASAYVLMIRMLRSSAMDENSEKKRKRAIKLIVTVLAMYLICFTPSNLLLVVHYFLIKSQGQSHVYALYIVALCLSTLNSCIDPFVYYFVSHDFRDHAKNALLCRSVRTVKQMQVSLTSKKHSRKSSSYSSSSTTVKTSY

348 GPCRs [4] = target: T4, 348 GPCRs (Homo sapiens, UniProt Q9Y2T6)
T4 construct: expressed in transfected cells; host or cells: HEK293A

348 GPCRs [5] = target: T5, 348 GPCRs (Homo sapiens, UniProt P47804); conditions: 10µM, Favipiravir 100μM
T5 construct: expressed in transfected cells; host or cells: HEK293A
T5 sequence (P47804 1-291): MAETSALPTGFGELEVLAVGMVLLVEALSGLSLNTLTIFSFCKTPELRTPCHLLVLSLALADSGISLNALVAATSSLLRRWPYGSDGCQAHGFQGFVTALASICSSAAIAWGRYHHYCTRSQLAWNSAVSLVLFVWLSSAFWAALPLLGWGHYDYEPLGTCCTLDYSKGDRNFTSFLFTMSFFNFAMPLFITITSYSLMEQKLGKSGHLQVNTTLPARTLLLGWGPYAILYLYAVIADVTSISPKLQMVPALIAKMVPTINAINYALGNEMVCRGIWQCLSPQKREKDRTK

[6] = OR1G1 (olfactory receptor, family 1, subfamily G, member 1), read-out: % GPCR activation compared to TPA
[7] = F2RL1 (coagulation factor II (thrombin) receptor-like 1), read-out: % GPCR activation compared to TPA
[8] = GPCR GPR55 (G Protein-Coupled Receptor 55), read-out: % GPCR activation compared to TPA
[9] = RGR (Retinal G protein coupled receptor), read-out: % GPCR activation compared to TPA
[10] = read-out: % GPCR activation compared to TPA, OR1G1 (olfactory receptor, family 1, subfamily G, member 1)
[11] = read-out: % GPCR activation compared to TPA, F2RL1 (coagulation factor II (thrombin) receptor-like 1)
[12] = read-out: % GPCR activation compared to TPA, GPCR GPR55 (G Protein-Coupled Receptor 55)
[13] = read-out: % GPCR activation compared to TPA, RGR (Retinal G protein coupled receptor)

T4 sequence (Q9Y2T6 whole entry): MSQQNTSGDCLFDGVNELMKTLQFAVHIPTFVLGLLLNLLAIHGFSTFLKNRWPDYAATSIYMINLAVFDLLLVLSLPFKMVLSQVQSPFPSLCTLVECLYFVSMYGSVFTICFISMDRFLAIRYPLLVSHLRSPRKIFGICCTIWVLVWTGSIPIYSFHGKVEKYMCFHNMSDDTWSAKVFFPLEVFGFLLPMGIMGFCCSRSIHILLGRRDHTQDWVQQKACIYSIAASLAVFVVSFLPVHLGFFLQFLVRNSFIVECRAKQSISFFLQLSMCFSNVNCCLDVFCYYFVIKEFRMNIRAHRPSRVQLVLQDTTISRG

**Q.** With `N#C[C@@]1(c2ccc3c(N)ncnn23)O[C@H](CO)[C@@H](O)[C@H]1O` [GS441524] as the compound, how does the activation at 10 µM (348 GPCRs [1]; [6]) read?
**A.** The activation at 10 µM was -1.68%.

**Q.** What about the “% GPCR activation compared to TPA” value (348 GPCRs [2]) of the same compound?
**A.** The value was 2.174%.

**Q.** What about the activation at 10 µM (348 GPCRs [3]; [7]) of the same compound?
**A.** Its activation at 10 µM is 0.132%.

**Q.** What about the activation at 10 µM (348 GPCRs [4]; [8]) of the same compound?
**A.** Its activation at 10 µM is -0.0977%.

**Q.** What about the activation at 100 µM (348 GPCRs [5]; [9]) of the same compound?
**A.** The activation at 100 µM was -2.11%.

**Q.** For `CC(C)OC(=O)[C@H](C)N[P@](=O)(OC[C@H]1O[C@@H](n2ccc(=O)[nH]c2=O)[C@](C)(F)[C@@H]1O)Oc1ccccc1` [sofosbuvir], which activation at 10 µM (348 GPCRs [1]; [10]) is on record?
**A.** The activation at 10 µM was -2.98%.

**Q.** What about the “% GPCR activation compared to TPA” value (348 GPCRs [2]) of the same compound?
**A.** Its value is -1.966%.

**Q.** And the activation at 10 µM (348 GPCRs [3]; [11])?
**A.** Its activation at 10 µM is 0.0736%.

**Q.** And the activation at 10 µM (348 GPCRs [4]; [12])?
**A.** Its activation at 10 µM is -0.223%.

**Q.** What about the activation at 100 µM (348 GPCRs [5]; [13]) of the same compound?
**A.** The activation at 100 µM was -3.06%.

**Q.** For `CCC(CC)COC(=O)[C@H](C)N[P@](=O)(OC[C@H]1O[C@@](C#N)(c2ccc3c(N)ncnn23)[C@H](O)[C@@H]1O)Oc1ccccc1` [remdesivir], which activation at 10 µM (348 GPCRs [1]; [10]) is on record?
**A.** The activation at 10 µM was -1.69%.

**Q.** And the “% GPCR activation compared to TPA” value (348 GPCRs [2])?
**A.** Its value is 0.0002648%.

**Q.** What about the activation at 10 µM (348 GPCRs [3]; [11]) of the same compound?
**A.** Its activation at 10 µM is -1.25%.

**Q.** And the activation at 10 µM (348 GPCRs [4]; [12])?
**A.** Its activation at 10 µM is -2.75%.

**Q.** And the activation at 100 µM (348 GPCRs [5]; [13])?
**A.** Its activation at 100 µM is -0.554%.

**Q.** Which activation at 10 µM (348 GPCRs [1]; [6]) does the source give for `CC(C)C(=O)OC[C@H]1O[C@@H](n2ccc(NO)nc2=O)[C@H](O)[C@@H]1O` [molnupiravir] here?
**A.** Its activation at 10 µM is -3.31%.

**Q.** What about the “% GPCR activation compared to TPA” value (348 GPCRs [2]) of the same compound?
**A.** The value was 0.4774%.

**Q.** And the activation at 10 µM (348 GPCRs [3]; [7])?
**A.** The activation at 10 µM was -1.8%.

**Q.** And the activation at 10 µM (348 GPCRs [4]; [8])?
**A.** Its activation at 10 µM is 0.0448%.

**Q.** What about the activation at 100 µM (348 GPCRs [5]; [9]) of the same compound?
**A.** The activation at 100 µM was -1.3%.

**Q.** Which results are given for `NC(=O)c1nc(F)cnc1O` [favipiravir, 6-fluoro-3-hydroxy-2-pyrazinecarboxamide]?
**A.** activation at 10 µM (348 GPCRs [1]; [6]): 0.965%; % GPCR activation compared to TPA (348 GPCRs [2]): 0.7248%; activation at 10 µM (348 GPCRs [3]; [7]): -2.7%; activation at 100 µM (348 GPCRs [4]; GPCR GPR55 (G Protein-Coupled Receptor 55), 100μM, read-out: % GPCR activation compared to TPA): -0.0195%; activation at 100 µM (348 GPCRs [5]; [9]): -1.43%

Source: publication PMC10175918 (Communications Biology, 2023)
